US20070274951A1, “Combinations comprising HCV protease inhibitor(s) and HCV polymerase inhibitor(s), and methods of treatment related thereto” (priority 2006, published 2007)
Read-outs that look alike come from different tables or passages of the source.

Test system: HCV replicon RNA in replicon cells
Experiment: Replicon RNA response to antiviral agent(s), real time PCR (Taqman assay)
Type: cell-based
Conditions: Hepatitis C virus, read-out: Inhibitor IC50 in replicon cells
Procedure: Replicon RNA response to antiviral agent(s) was examined using the HCV protease inhibitor Formula Ia alone or in combination with HCV NS5B polymerase inhibitors 2′-methyl-adenosine, benzothiadiazine, indole-N-acetamide, or NM 107. Likewise, replicon RNA response to antiviral agent(s) was examined using the HCV protease inhibitor SCH 446211 (SCH 6) alone or in combination with HCV polymerase inhibitor ribavirin.
In brief, replicon cells were seeded at 4000 cells/well in 96-well collagen 1-coated Biocoat plates (Becton Dickinson). At 24 hrs post-seeding, replicon cells were treated with the requisite anti-viral agent(s). The final concentration of DMSO was 0.5%, fetal bovine serum was 5%, and G418 (an aminoglycoside used as a selective agent) was 500 μg/ml. Media and anti-viral agent(s) were refreshed daily for 3 days, at which point the cells were washed with PBS and lysed in 1× cell lysis buffer (Ambion cat #8721). The replicon RNA level was measured using real time PCR (Taqman assay). The ampicon was located in NS5B. […] (SEQ ID NO: 2); the probe sequence was FAM-labeled […] (SEQ ID NO: 3). GAPDH RNA was used as endogenous control and was amplified in the same reaction as NS5B (multiplex PCR) using primers and VIC-labeled probe recommended by the manufacture (PE Applied Biosystem). The real-time RT-PCR reactions were run on ABI PRISM 7900HT Sequence Detection System using the following program: 48° C. for 30 min, 95° C. for 10 min, 40 cycles of 95° C. for 15 sec, 60° C. for 1 min. The ΔCT values (CT5B−CTGAPDH) were plotted against drug concentration and fitted to the sigmoid dose response model using SAS (SAS Institute Inc.) or Graphpad PRISM software (Graphpad Software Inc.). The IC50 is the drug dose necessary to achieve ΔCT=1 over the projected baseline. […] Alternatively, to quantitate the absolute amount replicon RNA, a standard curve was established by including serially diluted T7 transcripts of replicon RNA in the Taqman assay. All Taqman reagents were from PE Applied Biosystem. […]

CC(C)(C)NC(=O)N[C@H](C(=O)N1CC2C([C@H]1C(=O)NC(CC1CCC1)C(=O)C(N)=O)C2(C)C)C(C)(C)C (stereo partly drawn) [Formula Ia]
IC50 (cells selected by: Formula Ia + 2′-methyl-adenosine): 3.5 µM | IC50 (cells selected by: Formula Ia + Indole-N-acetamide): 2.4 µM | IC50 (cells selected by: No treatment): 0.3 µM
